How the values were obtained:
Estrogen receptor beta = Estrogen receptor beta (Homo sapiens, UniProt Q92731); assay: Inhibition of estrogen receptor beta
Estrogen receptor = biological target: T1, Estrogen receptor (Homo sapiens, UniProt P03372)
T1 sequence (P03372 whole entry): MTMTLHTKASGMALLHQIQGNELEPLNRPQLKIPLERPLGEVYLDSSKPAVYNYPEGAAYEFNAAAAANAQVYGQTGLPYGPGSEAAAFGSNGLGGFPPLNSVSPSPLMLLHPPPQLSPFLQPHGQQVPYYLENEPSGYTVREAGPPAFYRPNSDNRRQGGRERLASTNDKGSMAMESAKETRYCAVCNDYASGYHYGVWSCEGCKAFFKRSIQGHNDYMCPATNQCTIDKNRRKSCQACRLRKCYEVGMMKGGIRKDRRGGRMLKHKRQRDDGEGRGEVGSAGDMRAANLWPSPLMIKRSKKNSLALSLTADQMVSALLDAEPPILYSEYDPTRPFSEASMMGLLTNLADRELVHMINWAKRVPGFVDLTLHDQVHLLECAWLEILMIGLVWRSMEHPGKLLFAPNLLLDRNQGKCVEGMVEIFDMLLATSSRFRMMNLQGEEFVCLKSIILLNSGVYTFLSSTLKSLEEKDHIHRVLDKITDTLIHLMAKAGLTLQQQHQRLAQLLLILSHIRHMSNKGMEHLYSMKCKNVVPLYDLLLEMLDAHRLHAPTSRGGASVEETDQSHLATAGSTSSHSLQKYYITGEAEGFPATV
Description: Inhibition of estrogen receptor alpha

[1] = biological target: T2, Estrogen receptor (Mus musculus) (UniProt P19785)
T2 sequence (whole entry): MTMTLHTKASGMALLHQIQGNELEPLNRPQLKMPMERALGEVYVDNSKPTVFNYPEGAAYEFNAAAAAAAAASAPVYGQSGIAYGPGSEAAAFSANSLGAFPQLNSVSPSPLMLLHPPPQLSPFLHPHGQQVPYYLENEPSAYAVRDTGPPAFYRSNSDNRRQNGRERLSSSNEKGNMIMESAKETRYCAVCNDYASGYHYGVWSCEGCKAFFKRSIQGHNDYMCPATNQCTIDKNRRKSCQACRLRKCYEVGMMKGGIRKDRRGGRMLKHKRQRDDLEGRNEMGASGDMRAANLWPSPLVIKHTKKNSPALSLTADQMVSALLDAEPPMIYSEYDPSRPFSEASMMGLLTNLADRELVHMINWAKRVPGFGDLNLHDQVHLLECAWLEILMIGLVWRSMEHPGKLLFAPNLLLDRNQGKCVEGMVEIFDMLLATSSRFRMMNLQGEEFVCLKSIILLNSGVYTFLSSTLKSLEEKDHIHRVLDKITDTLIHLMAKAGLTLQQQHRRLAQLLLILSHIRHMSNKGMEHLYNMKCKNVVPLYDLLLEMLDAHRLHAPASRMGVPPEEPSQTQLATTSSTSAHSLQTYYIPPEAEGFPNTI
Description: Bone mineral density of compound was determined in vivo against estrogen receptor alpha

[2] = biological target: T2, Estrogen receptor (Mus musculus); conditions: Uterus
Description: Uterine weight assay of compound was determined in vivo against estrogen receptor alpha

Chain of Estrogen receptor beta (Q92731 whole entry): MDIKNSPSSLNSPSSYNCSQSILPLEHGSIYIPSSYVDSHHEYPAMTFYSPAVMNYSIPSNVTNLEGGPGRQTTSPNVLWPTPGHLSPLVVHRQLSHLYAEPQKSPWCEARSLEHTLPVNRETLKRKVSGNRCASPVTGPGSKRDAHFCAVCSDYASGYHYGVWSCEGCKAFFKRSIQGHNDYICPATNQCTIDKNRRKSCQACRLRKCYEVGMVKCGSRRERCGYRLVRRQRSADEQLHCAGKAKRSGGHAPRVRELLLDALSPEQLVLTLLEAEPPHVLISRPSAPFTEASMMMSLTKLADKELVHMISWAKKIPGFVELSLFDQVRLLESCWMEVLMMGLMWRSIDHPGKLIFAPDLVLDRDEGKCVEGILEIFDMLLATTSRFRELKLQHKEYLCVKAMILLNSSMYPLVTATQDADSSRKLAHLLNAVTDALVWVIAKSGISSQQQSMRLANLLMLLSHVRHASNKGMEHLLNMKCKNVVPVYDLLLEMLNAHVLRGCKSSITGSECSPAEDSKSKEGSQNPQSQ

Row | IC50 (Estrogen receptor beta) | IC50 (Estrogen receptor) | Bone mineral density [1] | Uterine weight [2] | Structure (SMILES)
1 | 25.3 nM | 0.86 nM | – | – | O=C(c1ccc(N2CCN(C(=O)c3ccccc3)CC2)cc1)c1c(-c2ccc(O)cc2)sc2cc(O)ccc12
2 | 12.9 nM | 3.58 nM | – | – | O=C(c1ccc(N2CCN(C(=O)c3ccccc3[N+](=O)[O-])CC2)cc1)c1c(-c2ccc(O)cc2)sc2cc(O)ccc12
3 | 14.2 nM | – | – | – | O=C(c1ccc(N2CCN(Cc3ccc([N+](=O)[O-])cc3)CC2)cc1)c1c(-c2ccc(O)cc2)sc2cc(O)ccc12
4 | 19.8 nM | 1.39 nM | – | – | O=C(c1ccc(N2CCN(C(=O)c3cccc(O)c3)CC2)cc1)c1c(-c2ccc(O)cc2)sc2cc(O)ccc12
5 | 12.5 nM | 0.27 nM | – | – | Cc1cccc(C(=O)N2CCN(c3ccc(C(=O)c4c(-c5ccc(O)cc5)sc5cc(O)ccc45)cc3)CC2)c1
6 | 4.02 nM | 0.78 nM | – | – | O=C(c1ccc(N2CCN(C(=O)c3ccc(Cl)cc3)CC2)cc1)c1c(-c2ccc(O)cc2)sc2cc(O)ccc12
7 | 29.4 nM | 1.43 nM | – | – | CCCN1CCN(c2ccc(C(=O)c3c(-c4ccc(O)cc4)sc4cc(O)ccc34)cc2)CC1
8 | 66.5 nM | 2.12 nM | – | – | Cc1cc(C)nc(N2CCN(c3ccc(C(=O)c4c(-c5ccc(O)cc5)sc5cc(O)ccc45)cc3)CC2)n1
9 | 3.21 nM | 1.72 nM | – | – | O=C(c1ccc(N2CCN(C(=O)c3ccccc3Cl)CC2)cc1)c1c(-c2ccc(O)cc2)sc2cc(O)ccc12
10 | 7.92 nM | 3.05 nM | – | – | O=C(c1ccc(N2CCN(C(=O)c3ccccc3O)CC2)cc1)c1c(-c2ccc(O)cc2)sc2cc(O)ccc12
11 | 1.27 nM | 2.15 nM | – | – | O=C(c1ccc(N2CCN(C(=O)c3ccc([N+](=O)[O-])cc3)CC2)cc1)c1c(-c2ccc(O)cc2)sc2cc(O)ccc12
12 | 5.53 nM | 0.97 nM | – | – | O=C(c1ccc(N2CCN(Cc3ccccc3)CC2)cc1)c1c(-c2ccc(O)cc2)sc2cc(O)ccc12
13 | 17.7 nM | 3.94 nM | – | – | Cc1ccccc1C(=O)N1CCN(c2ccc(C(=O)c3c(-c4ccc(O)cc4)sc4cc(O)ccc34)cc2)CC1
14 | 4.94 nM | 2.74 nM | – | – | Cc1ccc(C(=O)N2CCN(c3ccc(C(=O)c4c(-c5ccc(O)cc5)sc5cc(O)ccc45)cc3)CC2)cc1
15 | 3.7 nM | 0.46 nM | 432 mg/cubic cm | 29.3 mg | O=C(c1ccc(N2CCN(C(=O)c3cccc(Cl)c3)CC2)cc1)c1c(-c2ccc(O)cc2)sc2cc(O)ccc12
16 | 33.9 nM | 0.28 nM | 541 mg/cubic cm | 38.8 mg | CC(C)N1CCN(c2ccc(C(=O)c3c(-c4ccc(O)cc4)sc4cc(O)ccc34)cc2)CC1

Row | Structure (SMILES) | IC50 (Estrogen receptor beta) | IC50 (Estrogen receptor) | Bone mineral density [1] | Uterine weight [2]
17 | O=C(c1ccc(N2CCN(C(=O)c3ccncc3)CC2)cc1)c1c(-c2ccc(O)cc2)sc2cc(O)ccc12 | 93.6 nM | 14.5 nM | – | –
18 | O=C(c1ccc(N2CCN(C(=O)c3ccco3)CC2)cc1)c1c(-c2ccc(O)cc2)sc2cc(O)ccc12 | 20.1 nM | 2.65 nM | – | –
19 | O=C(c1ccc(N2CCN(C3CCCC3)CC2)cc1)c1c(-c2ccc(O)cc2)sc2cc(O)ccc12 | 18.1 nM | 1.08 nM | – | –
20 | O=C(c1ccc(N2CCN(c3ccc(Cl)cc3)CC2)cc1)c1c(-c2ccc(O)cc2)sc2cc(O)ccc12 | 9.07 nM | 0.22 nM | 482 mg/cubic cm | 30.5 mg

— ChEMBL document CHEMBL1141904, “Benzothiophenes containing a piperazine side chain as selective ligands for the estrogen receptor alpha and their bioactivities in vivo” (Bioorg Med Chem Lett, 2005)
